Measurements reported in paper PMC3914206.

Columns and labels:
panel of 442 kinases [1] = target: T1, panel of 442 kinases (Homo sapiens, UniProt Q13976); format: binding; details: Compound Concentration 10 µM
T1 construct: purchased KINOMEscan
T1 sequence (Q13976 1-671): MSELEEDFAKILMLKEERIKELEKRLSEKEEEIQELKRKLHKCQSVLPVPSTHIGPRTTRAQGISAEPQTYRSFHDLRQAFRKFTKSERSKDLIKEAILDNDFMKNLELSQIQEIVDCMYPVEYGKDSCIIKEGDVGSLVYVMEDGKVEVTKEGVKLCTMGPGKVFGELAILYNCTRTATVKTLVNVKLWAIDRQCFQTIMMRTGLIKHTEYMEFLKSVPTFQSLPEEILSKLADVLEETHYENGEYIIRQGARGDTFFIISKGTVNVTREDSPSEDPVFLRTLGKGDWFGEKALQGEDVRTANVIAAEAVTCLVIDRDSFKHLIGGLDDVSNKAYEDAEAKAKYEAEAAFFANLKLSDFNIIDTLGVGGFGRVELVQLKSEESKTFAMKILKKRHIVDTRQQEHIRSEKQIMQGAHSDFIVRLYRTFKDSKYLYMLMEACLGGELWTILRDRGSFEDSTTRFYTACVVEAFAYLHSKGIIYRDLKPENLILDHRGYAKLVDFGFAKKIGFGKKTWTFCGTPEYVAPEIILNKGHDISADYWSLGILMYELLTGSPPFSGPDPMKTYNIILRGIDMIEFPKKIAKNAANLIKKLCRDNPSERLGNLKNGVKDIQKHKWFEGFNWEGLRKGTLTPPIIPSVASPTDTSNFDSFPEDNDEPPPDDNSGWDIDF
Excerpt: (§1) We assessed the selectivity of members of this scaffold using the KINOMEscan methodology across a near comprehensive panel of 442 kinases [[18,27]].

panel of 442 kinases [2] = target: T2, panel of 442 kinases (Homo sapiens, UniProt O75676); format: binding; details: Compound Concentration 10 µM
T2 construct: purchased KINOMEscan
T2 sequence (O75676 whole entry): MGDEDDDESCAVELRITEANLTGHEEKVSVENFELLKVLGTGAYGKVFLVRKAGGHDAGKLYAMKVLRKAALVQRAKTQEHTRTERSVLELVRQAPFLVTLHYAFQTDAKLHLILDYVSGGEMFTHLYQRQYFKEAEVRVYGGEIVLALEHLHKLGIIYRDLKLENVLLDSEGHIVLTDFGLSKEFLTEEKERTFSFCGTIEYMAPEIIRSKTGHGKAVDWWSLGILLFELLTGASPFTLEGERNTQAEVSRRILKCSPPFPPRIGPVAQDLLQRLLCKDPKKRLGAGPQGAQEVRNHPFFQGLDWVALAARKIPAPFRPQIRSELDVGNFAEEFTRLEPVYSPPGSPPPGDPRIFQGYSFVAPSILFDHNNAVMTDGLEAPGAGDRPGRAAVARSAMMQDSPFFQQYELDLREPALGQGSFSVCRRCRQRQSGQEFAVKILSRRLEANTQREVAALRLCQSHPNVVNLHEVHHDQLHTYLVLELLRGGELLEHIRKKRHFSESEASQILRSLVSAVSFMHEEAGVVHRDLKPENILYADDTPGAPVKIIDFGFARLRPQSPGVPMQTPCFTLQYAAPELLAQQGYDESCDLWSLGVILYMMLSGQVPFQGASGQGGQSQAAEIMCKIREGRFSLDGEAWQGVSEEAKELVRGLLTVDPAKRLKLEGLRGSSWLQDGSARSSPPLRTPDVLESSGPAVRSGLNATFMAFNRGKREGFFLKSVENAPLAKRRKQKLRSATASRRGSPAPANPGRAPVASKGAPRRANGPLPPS
Excerpt: as §1

Row | Structure (SMILES) | KINOMEscan: PRKG1 (panel of 442 kinases [1]) | KINOMEscan: RPS6KA4(Kin.Dom.1-N-terminal) (panel of 442 kinases [2]) | KINOMEscan: RPS6KA4(Kin.Dom.2-C-terminal) (panel of 442 kinases [2])
1 | COc1cc(C(=O)N2CCC(N3CCN(C)CC3)CC2)ccc1Nc1ncc2c(n1)N(C)c1ccccc1C(=O)N2C [15 (LRRK2-IN-1)] | 98 | 100 | 46
2 | CCOc1cc(C(=O)N2CCC(N3CCN(C)CC3)CC2)ccc1Nc1ncc2c(n1)N(C1CCCC1)c1ccccc1C(=O)N2C [Compound 26] | 100 | 100 | 100
3 | COc1cc(C(=O)N2CCC(N3CCN(C)CC3)CC2)ccc1Nc1ncc2c(n1)N1CCc3cccc(c31)C(=O)N2C [Compound 24] | – | – | 0.65
4 | COc1cc(C(=O)N2CCC(N3CCN(C)CC3)CC2)ccc1Nc1ncc2c(n1)N(C1CCCC1)c1ccccc1C(=O)N2C [Compound 25, 11-cyclopentyl-2-((2-methoxy-4-(4-(4-methylpiperazin-1-yl)piperidine-1-carbonyl)phenyl)amino)-5-methyl-5H-benzo[e]pyrimido[5,4-b][1,4]diazepin-6(11H)-one] | 100 | 100 | 100
